In patent EP0623675A1, “Altered affinity polypeptides of metal chelate binding antibodies” (HYBRITECH INCORPORATED, priority 1992, dated 1994):

Tests used:
[1] = tested on: CHA255 Fab' variant clone 1.1.1 (heavy chain CDR H1/H3 mutagenesis, Fig. 3B); assay: Scatchard analysis of phage expressed altered CHA255 Fab' with InEOTUBE; format: binding, murine; settings: compared with native CHA255 Fab' (synthesized and phage expressed); crude periplasm Fab', about 10 nM; cold InEOTUBE 2.43 nM to 0.082 nM
Experimental: (§1) Free Fab' was expressed and isolated from the periplasmic space of the non-suppressor strain MK30-3 as previously described (International Patent Publication No. WO 92/06204). The concentration of antibody in periplasm preparations was estimated by comparing the ELISA signal generated by aliquots of periplasm of mutant clones to a standard curve using purified CHA255 Fab'. Data points for the Scatchard plots were prepared by incubating antibody (100 µl, approximately 10 nM) diluted in 1X PBS, 1% BSA as crude periplasm fraction with dilutions of cold InEOTUBE (2.43 nM to 0.082 nM) in 1X PBS, 1% BSA hapten spiked with ¹¹¹InEOTUBE as a tracer for […]. This assay is described in greater detail in Example 3, below. The sample was centrifuged at 6,000 rpm for 10 minutes in an Amicon Centrifree™ micro-concentrator (Amicon, Grace Co., Danvers, MA), 10,000 MW cutoff, to separate free hapten from hapten bound to Fab'. Total and free counts were determined and the slope of a plot of the ratio of bound hapten to free hapten versus the concentration of bound hapten was calculated for affinity constant (Ka).
(§2) The following were added to a 96 well microtiter plate, in triplicate: • a. 25µl EOTUBE-¹¹¹In-ground state in at 4.40pg/µl; • b. 25µl EOTUBE-ground state in at serial dilutions of the 0.40ng/µl and 0.36ng/µl made above. Eleven dilutions each plus a zero giving 24 points with a range of 10ng/well down to 4.40pg/well plus a zero. Dilute with RPMI containing 10% horse serum; • c. 25µl RPMI containing 10% horse serum; • d. 25µl antibody of interest. (concentration determined by sensitivity assay); and • e. 20µl sheep anti-mouse IgG coupled to sepharose beads (same as used in sensitivity curve assay).
(§3) The plate was incubated overnight on a rotator at room temperature. The contents of wells were aspirated onto glass-fiber filter paper, cut out and counted. Molar bound vs. bound/free were graphed. The linear regression of the part of the curve that is a straight line was determined. Ka was the negative of the slope.

[2] = tested on: CHA255 Fab' variant clone 3.1.1 (heavy chain CDR H1/H3 mutagenesis, Fig. 3B); assay: as above; format: binding, murine; settings: compared with native CHA255 Fab' (synthesized and phage expressed); crude periplasm Fab', about 10 nM; cold InEOTUBE 2.43 nM to 0.082 nM
Experimental: as §1, §2, §3

[3] = tested on: CHA255 Fab' variant clone 3.2.1 (heavy chain CDR H1/H3 mutagenesis, Fig. 3B); assay: as above; format: binding, murine; settings: compared with native phage expressed CHA255 Fab'; crude periplasm Fab', about 10 nM; cold InEOTUBE 2.43 nM to 0.082 nM
Experimental: as §1, §2, §3

[4] = tested on: CHA255 Fab' variant clone 3.7.1 (heavy chain CDR H1/H3 mutagenesis, Fig. 3B); assay: as above; format: binding, murine; settings: compared with native CHA255 Fab' (synthesized and phage expressed); crude periplasm Fab', about 10 nM; cold InEOTUBE 2.43 nM to 0.082 nM
Experimental: as §1, §2, §3

[5] = tested on: CHA255 Fab' variant clone 4.2.1 (heavy chain CDR H1/H3 mutagenesis, Fig. 3B); assay: as above; format: binding, murine; settings: compared with native CHA255 Fab' (synthesized and phage expressed); crude periplasm Fab', about 10 nM; cold InEOTUBE 2.43 nM to 0.082 nM
Experimental: as §1, §2, §3

[6] = tested on: monoclonal antibody CHA255; assay: Antibody CHA255 binding assay (Centrifree ultrafiltration of labeled chelate); parameters: species or system murine; settings: radiolabeled chelate 5 nM, antibody 133 nM, PBS pH 7.4, 15 minutes at room temperature
Experimental: As indicated, the monoclonal antibody CHA255 is specific for the In(III)-benzyl EDTA complex. The affinity and characterization have been described previously by Reardon et al. in Nature 316:265 (1985). Binding assays were performed to verify the identity of the haptens designated as DB-I to DB-X and DDB-I to DDB-III. […] For the ⁹⁰Yttrium (III) hapten chelate, in particular, CHA255 binding required the presence of the Indiumbenzyl-EDTA moiety as provided in the compounds of the invention. The labeled DB and DDB hapten chelates were combined with antibody CHA255 in PBS (10 mM sodium phosphate, 150 mM sodium chloride, pH 7.4) containing 44 µg/mL of human serum albumin and 0.05% Triton-X-100 detergent. Concentrations of the radiolabeled hapten chelating agent and antibody were 5 nM and 133 nM, respectively. The mixture was vortexed and allowed to stand at room temperature for 15 minutes, after which it was transferred to an Amicon Centrifree™ device, with a NMW limit of 30,000, and centrifuged to separate antibody-bound chelate from free hapten chelate. The species bound to the antibody was retained by the membrane and the free chelate flowed through the membrane into the filtrate. The extent of antibody-hapten chelate binding was then determined.

| Substance | binding affinity (affinity constant Ka for InEOTUBE) [1] | binding affinity (affinity constant Ka for InEOTUBE) [2] | binding affinity (affinity constant Ka for InEOTUBE) [3] | binding affinity (affinity constant Ka for InEOTUBE) [4] | binding affinity (affinity constant Ka for InEOTUBE) [5] | antibody-hapten chelate binding [6] |
| --- | --- | --- | --- | --- | --- | --- |
| 4-[N'[2-hydroxyethyl]-thioureido]benzyl EDTA [InEOTUBE] | approximately equivalent | approximately equivalent | approximately one order of magnitude less than the native phage expressed Fab' | approximately equivalent | approximately equivalent | – |
| diethylenetriaminepentaacetic acid [⁹⁰Yttrium (III) DTPA] | – | – | – | – | – | neither ⁹⁰Yttrium (III) or ¹¹¹Indium (III) DTPA, alone, bound |
